The text below walks through data of ChEMBL document CHEMBL3813657, “Bacterial Peptide deformylase inhibition of cyano substituted biaryl analogs: Synthesis, in vitro biological evaluation, molecular docking study and in silico ADME prediction” (Bioorg Med Chem, 2016).

The term MIC denotes the lowest concentration that inhibits growth of the organism. Low readings indicate a more susceptible organism, high ones a less susceptible organism. The term pIC50 denotes the IC50 on a negative log10 scale, so that one unit is a factor of ten.

One test deals with Bacillus subtilis. Put plainly: Antibacterial activity against Bacillus subtilis NCIM-2063 after 24 hrs by two fold serial dilution method. In kind it is functional. The conditions noted are these: NCIM-2063, 24 h.
The subject of a further test is Escherichia coli. Put plainly: Antibacterial activity against Escherichia coli NCIM-2256 after 24 hrs by two fold serial dilution method. The settings on record: NCIM-2256, 24 h. The test is classed as functional.
In test [1] the target is T1, Peptide deformylase (Escherichia coli, UniProt Q9JN24).
T1 sequence (Q9JN24 whole entry): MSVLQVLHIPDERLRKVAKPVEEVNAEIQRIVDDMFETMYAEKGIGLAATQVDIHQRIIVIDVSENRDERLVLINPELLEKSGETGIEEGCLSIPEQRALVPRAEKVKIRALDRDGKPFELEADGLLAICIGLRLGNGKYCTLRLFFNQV
Kind of test: Inhibition of NiCl2 stabilized Escherichia coli NCIM-2931 peptide deformylase using N-formyl-Met-Ala as substrate incubated for 30 mins by spectrophotometric method.

Test [2] addresses T1, Peptide deformylase. Put plainly: Inhibition of Escherichia coli peptide deformylase.

pIC50: −log10 of the molar value. Converted amounts (≈) assume the structure as drawn.

In the case of `COc1ccc2nc(NCc3ccc(-c4ccccc4C#N)cc3)sc2c1`, the MIC in the test on Bacillus subtilis worked out at 36.2 µg/mL (≈ 97.6 µM); in the test with Escherichia coli it was 35.2 µg/mL (≈ 94.9 µM). At Peptide deformylase [1], this compound gave a pIC50 of 4.56.
On the same counts, the results for `N#Cc1ccccc1-c1ccc(CNc2ccc(Cl)cc2[N+](=O)[O-])cc1` are 27.2 µg/mL (≈ 74.7 µM), 45.6 µg/mL (≈ 125 µM) and 4.55.
In the same order, the values of `N#Cc1ccccc1-c1ccc(CNc2cccc([N+](=O)[O-])c2)cc1` are 29.3 µg/mL (≈ 89.1 µM), 40.9 µg/mL (≈ 124 µM) and 4.60.
For the compound `N#Cc1ccccc1-c1ccc(CNc2ccc(O)cc2)cc1`, the MIC turned out to be 28.3 µg/mL (≈ 94.3 µM) against Bacillus subtilis and 33.6 µg/mL (≈ 112 µM) in the test on Escherichia coli. Further, the pIC50 against Peptide deformylase [1] is 4.46.
In the same order, the values of `N#Cc1ccccc1-c1ccc(CNc2cnccn2)cc1` are 7.66 µg/mL (≈ 26.8 µM), 16.9 µg/mL (≈ 59.1 µM) and 4.72.
Turning to `N#Cc1ccccc1-c1ccc(CNc2ccc(C(=O)O)cc2)cc1`, the MIC amounted to 26.8 µg/mL (≈ 81.5 µM) against Bacillus subtilis and 32.6 µg/mL (≈ 99.2 µM) in the test on Escherichia coli. This compound also had a pIC50 on Peptide deformylase [1] of 4.29.
Compound `CCCc1nc2ccc(Cl)cc2n1Cc1ccc(-c2ccccc2-c2nnn[nH]2)cc1` gave a pIC50 at Peptide deformylase [2] of 5.41.
As for `N#Cc1ccccc1-c1ccc(CNn2cnnc2)cc1`, the MIC was 23.8 µg/mL (≈ 86.3 µM) with Bacillus subtilis and 36.5 µg/mL (≈ 133 µM) in the test on Escherichia coli. Also, at Peptide deformylase [1], the pIC50 was 4.29.
On the same counts, the results for `N#Cc1ccccc1-c1ccc(CNc2ccccc2[N+](=O)[O-])cc1` are 23.8 µg/mL (≈ 72.1 µM), 28.5 µg/mL (≈ 86.5 µM) and 4.81.
Consider `O=C(O)c1cn(C2CC2)c2cc(N3CCNCC3)c(F)cc2c1=O` [CIPROFLOXACIN], for which, in the test on Escherichia coli, the MIC was 25 µg/mL (≈ 75.4 µM).
With `N#Cc1ccccc1-c1ccc(CNc2ccc(C(F)(F)F)cc2)cc1`, the minimum inhibitory concentration (MIC) in the test with Bacillus subtilis turned out to be 34.4 µg/mL (≈ 97.7 µM); with Escherichia coli, 35.5 µg/mL (≈ 101 µM). The pIC50 against Peptide deformylase [1] is 4.47.
`CCCC1=NC2C(C)=CC(C)=NN2C1Cc1ccc(-c2ccccc2C(=O)O)cc1` (configuration not stated): the pIC50 on Peptide deformylase [2] is 4.64.
On to `N#Cc1ccccc1-c1ccc(CNc2ccc(N3CCOCC3)c(F)c2)cc1`, for which the results for the MIC against Bacillus subtilis and in the test with Escherichia coli were 21.6 µg/mL (≈ 55.7 µM) and 37.3 µg/mL (≈ 96.3 µM), respectively. This compound had a pIC50 against Peptide deformylase [1] of 4.37.
In the same order, the values of `N#Cc1ccccc1-c1ccc(CNc2ccccc2O)cc1` are 29.3 µg/mL (≈ 97.6 µM), 39.6 µg/mL (≈ 132 µM) and 4.48.
In the same order, the values of `N#Cc1ccccc1-c1ccc(CNc2cccc(C(F)(F)F)c2)cc1` are 25.8 µg/mL (≈ 73.3 µM), 42.5 µg/mL (≈ 121 µM) and 4.68.
As for `N#Cc1ccccc1-c1ccc(CNc2ccccc2)cc1`, the MIC against Bacillus subtilis stood at 11 µg/mL (≈ 38.7 µM); with Escherichia coli it was 15.8 µg/mL (≈ 55.7 µM). This compound showed a pIC50 on Peptide deformylase [1] of 4.88.
